The results in this text go back to patent US4661596A, “Quinolinyl (or pyridinyl) methoxy substituted naphthalene compounds as antiallergic agents” (American Home Products Corporation, priority 1985, dated 1987).

What is called inhibition is the drop in the measured response relative to a control, in per cent. Low readings indicate a response near the control, high ones a response far below the control.

Bounds are passed on as bounds.

For assay [1], the system named is LTD4 induced bronchoconstriction. The assay can be described thus: in vivo inhibition of LTD4-induced bronchospasm in guinea pigs. On the set-up: species or system guinea pig (male Hartley). The conditions noted are these: 50 mg/kg intraduodenal; 10 minutes before induction of bronchospasm by LTD4; average of 6 experiments.
For assay [2], the system named is synthesis of 5-HETE by rat glycogen-elicited polymorphonuclear leukocytes. As to the kind of experiment: inhibition of 5-HETE synthesis by rat glycogen-elicited polymorphonuclear leukocytes. It is filed as cell-based, rat (female Wistar). Particulars: Leukocyte; 50 μM unless otherwise stated; rat PMN, A23187 (10 μM) and [14C] arachidonic acid, 10 minutes preincubation. Here is the method:
This is especially true with respect to 5,12-diHETE, which is also denoted as LTB4 [see Ford-Hitchinson, J. Roy. Soc. Med., 74, 831 (1981)]. The assay of this Example measures the ability of the compounds of the invention to inhibit the synthesis of 5-HETE by rat glycogen-elicited polymorphonuclear leukocytes.
The array is carried out as follows:
Peritoneal PMN are obtained from female Wistar rats (150-250 g) that received an i.p. injection of 6% glycogen (10 mL). After 24 hours, rats are killed by CO2 asphyxiation and peritoneal cells are harvested by peritoneal lavage using Ca^++ and Mg^++ free Hanks' balanced salt solution (HBSS). The peritoneal exudate is centrifuged at 400 g for 10 minutes. After centrifugation, the lavaged fluid is removed and the cell pellet is resuspended in HBSS containing Ca^++ and Mg^++ and 10 mM L-cysteine at a concentration of 2×10^7 cells/mL. To 1 mL portions of cell suspension, test drugs or vehicle are added and incubated at 37° C. for 10 minutes. Following this preincubation, the calcium ionophore (10 μM), A23187, is added together with 0.5 μCi [^14 C] arachidonic acid and further incubated for 10 minutes. The reaction is stopped by the addition of ice cold water (3 mL) and acidifying to pH 3.5. Lipoxygenase products are then extracted twice into diethyl ether. The pooled ether extracts are evaporated to dryness under nitrogen and the residue is redissolved in a small volume of methanol and spotted on aluminum backed pre-coated thin layer chromatographic plates. The samples are then co-chromatographed with authentic reference 5-HETE in the solvent system-hexane:ether:acetic acid (50:50:3). After chromatography, the areas associated with 5-HETE standard are identified by autoradiography, cut out and quantitated by liquid scintillation.
Results are expressed as % inhibition of [^14 C]5-HETE synthesis. [formula]
Testing compounds of the invention in this assay the following results are obtained, where the concentration of the compounds tested is 50 μM unless otherwise stated.

As for `OC1CCCc2ccc(OCc3ccc4ccccc4n3)cc21` (stereo not shown) [Example 1, 1,2,3,4-Tetrahydro-7-(2-quinolinylmethoxy)-1-naphthalenol], the “% Inhibition (Statistical Average) Overflow Volume at 5 min.” value (from here on “% Inhibition”) in assay [1] worked out at 56.1%. The inhibition at 50 µM in assay [2] was above 50%.

`Oc1ccc2ccc(OCc3ccc4ccccc4n3)cc2c1` [Example 2, 7-(2-quinolinylmethoxy)-2-naphthalenol] registered an inhibition at 50 µM in assay [2] above 50%.

In the case of `COc1ccc2ccc(OCc3ccc4ccccc4n3)cc2c1` [Example 3, 2-[[(7-methoxy-2-naphthalenyl)oxy]methyl]quinoline], in assay [2], the inhibition at 50 µM was above 50%.

In assay [2], `Oc1ccc2ccc(OCc3nc4ccccc4s3)cc2c1` [Example 4, 7-(2-benzothiazolylmethoxy)-2-naphthalenol] yielded an inhibition at 50 µM above 50%.

For `Oc1ccc2ccc(OCc3ccccn3)cc2c1` [Example 5, 7-(2-pyridinylmethoxy)-2-naphthalenol], the inhibition at 50 µM in assay [2] was above 50%.

Consider `Nc1cccc2ccc(OCc3ccc4ccccc4n3)cc12` [Example 6, 7-(2-quinolinylmethoxy)-1-naphthalenamine], for which the inhibition at 50 µM in assay [2] was above 50%.

As to `Nc1ccc2ccc(OCc3ccc4ccccc4n3)cc2c1` [Example 7, 7-(2-quinolinylmethoxy)-2-naphthalenamine], in assay [1], the “% Inhibition” value turned out to be 88.7%. The compound further had an inhibition at 50 µM in assay [2] above 50%.

For `CCS(=O)(=O)Nc1ccc2ccc(OCc3ccc4ccccc4n3)cc2c1` [Example 8, N-[7-(2-quinolinylmethoxy)-2-naphthalenyl]ethane sulfonamide], the “% Inhibition” value in assay [1] amounted to 90.6%. This compound also showed an inhibition at 50 µM in assay [2] above 50%.

In assay [2], `C=C1CCCc2ccc(OCc3ccc4ccccc4n3)cc21` [Example 9, 2-[[(5,6,7,8-tetrahydro-8-methylene-2-naphthalenyl)oxy]methyl]quinoline] showed an inhibition at 50 µM above 50%.

In the case of `O=S(=O)(Nc1ccc2ccc(OCc3ccc4ccccc4n3)cc2c1)C(F)(F)F` [Example 10, N-[7-(2-quinolinylmethoxy)-2-naphthalenyl]trifluoromethane sulfonamide], in assay [1], the “% Inhibition” value was determined as 99.0%.
